Assay results from patent US20090082249A1, “NUTRITIONAL SUPPLEMENT FOR A CATEGORY OF HIV PATIENTS” (N.V. Nutricia, priority 2005, published 2009).

System: intestinal tight junction permeability
Test: Inflammatory mediated intestinal tight junction permeability

CCCCC/C=C\C/C=C\C/C=C\CCCCC(=O)O [GLA, gamma linolenic acid]
reduction of inflammatory mediated intestinal tight junction permeability: effectively reduce
